Earlier results, collected in US20260355312A1, “COMBINED THERAPY DRUG COMPRISING ANTI-HER2 BISPECIFIC ANTIBODY AND USE THEREOF” (JIANGSU ALPHAMAB BIOPHARMACEUTICALS CO., LTD., priority 2023, published 2026).

Tested on: tumor

## CC(=O)O[C@@]12CO[C@@H]1C[C@H](O)[C@@]1(C)C(=O)[C@H](O)C3=C(C)[C@@H](OC(=O)[C@H](O)[C@@H](NC(=O)OC(C)(C)C)c4ccccc4)C[C@@](O)([C@@H](OC(=O)c4ccccc4)[C@H]21)C3(C)C [Docetaxel, docetaxel]
  antitumor activity compared to paclitaxel: stronger antitumor activity than paclitaxel
